Tests used:
Assay type in all cases: cell-based, human
C80 cells = test: Activity of mitochondrial ETC complexes I-IV in C80 cells; details: FLVCR1a-silenced vs scramble shRNA C80 cells
From the text: (§1) (A, C, E) Activities of the mitochondrial electron transport chain complexes I-IV. FLVCR1a-silenced Caco2 (A), SKCO1 (C) or C80 cells (E) are compared to cells expressing a scramble shRNA. Results were expressed as nmol NAD^+/min/mg mitochondrial protein for complex I, nmol reduced cytochrome c/min/mg mitochondrial protein for complexes II-III, nmol oxidized cytochrome c/min/mg mitochondrial protein for complex IV. Data represent mean±SEM, n=3. For statistical analyses, an unpaired Student's t-test was used; *=p<0.05, **=p<0.01. (B, D, F) Mitochondrial ATP levels measured by a bioluminescent assay kit. FLVCR1a-silenced Caco2 (B), SKCO1 (D) or C80 cells (F) are compared to cells expressing a scramble shRNA. Results are expressed as nmol/mg mitochondrial proteins. Data represent mean±SEM, n=3. […] Results were expressed as nmol NAD^+/min/mg mitochondrial protein for complex I, nmol reduced cytochrome c/min/mg mitochondrial protein for complexes II-III, nmol oxidized cytochrome c/min/mg mitochondrial protein for complex IV. […] (H) Mitochondrial ATP levels measured by a bioluminescent assay kit in Caco2 cells overexpressing FLVCR1a (indicated as FLVCR1a+) compared to cells stably transduced with an empty vector. Results are expressed as nmol/mg mitochondrial proteins. […]
(§2) The activity of mitochondria respiration complexes was measured according to (Wibom et al., 2002).

Caco2 cells [1] = test: Activity of mitochondrial ETC complexes I-IV in Caco2 cells; details: FLVCR1a-silenced vs scramble shRNA Caco2 cells
From the text: as §1, §2

BTECs = test: Wound healing assay (BTECs migration); details: FLVCR1a-silenced vs scramble shRNA BTECs
From the text: (A) BTECs counting, as a readout of cell proliferation, at the indicated time points. […] Data represent mean±SEM, n=4. For statistical analyses, a two-way analysis of variance was used, followed by the Bonferroni correction for multiple group comparisons; ***p<0.001. (B) Quantification of BTECs migration rate in wound-healing assay. […] Data represent mean±SEM, n=32. For statistical analyses, a nonparametric unpaired Mann-Whitney test was used; ***p<0.001. (C) In vitro tubulogenesis assay on matrigel. […] The number of nodes counted within the neo-formed vascular networks is shown. Data represent mean±SEM; n=10. For statistical analyses, a nonparametric unpaired Mann-Whitney test was used; **p<0.01.
To evaluate cell motility, BTECs were grown to confluence in 24-well plates coated with 1% Gelatin from bovine skin (Sigma-Aldrich, St. Louis, MO USA, catalog n° G9391). […] Cell migration into the wound was monitored using a Nikon Eclipse T-E microscope with a 4× objective. […] Three separate wells were used for each condition and, in each well, at least six fields were analysed for each condition. Cell migration into the wound was assessed using Fiji open source software (Schindelin et al., 2012) (http://fiji.sc/ RRID:SCR_002285), by measuring the distance between the two sides of the wound at each time point. Data were expressed as percentage of cell migration. […]

Caco2 cells [2] = test: TCA cycle enzymes activities in Caco2 cells; details: FLVCR1a knockdown vs scramble shRNA Caco2 cells
From the text: TCA cycle flux is reported in the centre of the figure and expressed as pmol CO2/h/mg protein. Data represent mean±SEM, n=3. For statistical analyses, an unpaired Student's t-test was used. **=p<0.01. Moreover, TCA cycle enzymes activities are reported in boxes and expressed as mU/mg mitochondrial proteins. Data represent mean±SEM, n=3. For statistical analyses, an unpaired Student's t-test was used; *=p<0.05, ***=p<0.001. […] Results are expressed as pmol CO2/h/mg protein. Data represent mean±SEM, n=3. For statistical analyses, an unpaired Student's t-test was used; *=p<0.05, **=p<0.01. […]
The enzymatic activities of citrate synthase, α-ketoglutarate dehydrogenase, succinate dehydrogenase and malate dehydrogenase were measured on 10 μg mitochondrial proteins using the Citrate Synthase Assay Kit (Sigma Aldrich, St. Louis, MO USA, catalog n° MAK193), Alpha Ketoglutarate (alpha KG) Assay Kit (Abcam, Cambridge, UK, catalog n° ab83431), Malate Dehydrogenase Assay Kit (Sigma Aldrich, St. Louis, MO USA, catalog n° MAK196), Succinate Dehydrogenase Activity Colorimetric Assay Kit (BioVision, Milpitas, CA USA, catalog n° K660), as per manufacturer's instructions. Results were expressed as mU/mg mitochondrial proteins.

FLVCR1a shRNA: shRNA specifically down-regulating FLVCR1a without targeting FLVCR1b; pLKO.1 lentiviral clone TRCN0000059599, antisense SEQ ID No.: 2 (antisense TTGCTAATGATGCTGTACTGG; sense CCAGTACAGCATCATTAGCAA)
ETC complexes activity (C80 cells): increased ETC complexes activity
activity of mitochondrial respiratory chain complexes (Caco2 cells [1]): increased activity of all the complexes involved in the mitochondrial respiratory chain
migratory rate (BTECs): reduction of the migratory rate
TCA cycle enzymes activity (citrate synthase, α-ketoglutarate dehydrogenase, succinate dehydrogenase, malate dehydrogenase) (Caco2 cells [2]): enhanced activity

Source: US20240285670A1, “THERAPEUTIC TREATMENT OF TUMORS BY BLOCKING THE HEME SYNTHESIS-EXPORT AXIS” (Università degli Studi di Torino, priority 2021, published 2024)
